Source: US5451506A, “Oncostatin M and novel compositions having anti-neoplastic activity” (Oncogen Limited Partnership, priority 1993, dated 1995)
Several values for one entry are separate records, joined by “and”; a condition that tells them apart may be missing. Identical values can stand only once.

Experiments:
A375 melanoma cells = assay: Cell growth modulatory assay using 3H-thymidine incorporation into DNA (GIA); assay type: cell-based, human; parameters: Observed % Inhibition of 3H-TdR Incorporation: concentration or dose not given beside the values
Description: (§1) The assays were performed in 96 flat well plates (Costar 3596). Human melanoma cells (A375) (3×10^3 /100 μl) or cells from another cell line of interest were at an appropriate cell density used. Cells in 100 μl growth medium were placed in each well. Three hours later, 100 μl of test sample in growth medium was added to each well. Plates were incubated at 37° C. for 3 days. Then 25 μl (0.5 μCi) of a solution of ^3 H-thymidine (specific activity 27 μCi/μg) was added to each well for the final 6 hours of incubation. The cells were then transferred to glass filter strips using a multiwell harvester (PHD Cell Harvester, Cambridge Technology, Inc.). The filters were transferred to scintillation vials. Two ml of scintillation fluid (ScientiVerse II, Fisher Scientific Co.) was added and the samples counted in a scintillation counter to quantitate ^3 H-thymidine incorporation.

[1] = test system: human proliferative or cytotoxic T cell responses; assay: Mixed leukocyte culture reactions (MLC); assay type: cell-based; details: 500 GIA units/ml
[2] = test system: γ-interferon-sensitive human tumor cell line; assay: Cytotoxic activity against a γ-interferon-sensitive tumor line; assay type: cell-based
MCF-7 breast tumor cells = assay: Inhibition of 3H-TdR incorporation, Oncostatin M and TNF-α; assay type: cell-based, human; details: MCF-7 Cells
Description: as §1
Inhibition of ^3 H-TdR incorporation into A375 cells and MCF-7 cells were compared using the assay described in Example 1B, above. The cells were treated with either Oncostatin M alone, TNF-α (Amgen Biologicals, human recombinant TNF-α) alone, or with a combination of Oncostatin M and TNF-α.

A549 lung cancer cells = assay: Cell growth modulatory assay using 3H-thymidine incorporation into DNA (GIA); assay type: cell-based, human
Description: as §1
(§2) The effect of Oncostatin M on various cell lines was assessed using a cell growth modulatory assay performed as described in Example 1B, above. The cell lines tested included A549 lung cancer cells. HTB10 neuroblastoma cells, and A375 melanoma cells.

[3] = test system: HTB10 neuroblastoma cells; assay: as above; assay type: cell-based, human
Description: as §1, §2

bone marrow cells = assay: Granulocytic/myelocytic colony formation from bone marrow cells; assay type: cell-based; details: concentrations up to 100 GIA units/ml
A375 tumor cells = assay: Inhibition of growth of A375 tumors in nude mice; assay type: in vivo; details: for Cumulative Tumor Size: 3 mice
Description: A375 tumor cells (2.3×10^6) or an appropriate number of cells of another cell line of interest were injected subcutaneously in the interscapular region of nude mice. When the tumors became palpable, half of the mice were inoculated subcutaneously proximal to the tumor with either (a) 100 μl PBS containing 1.6 μg bovine serum albumin (BSA) or (b) 100 μl PBS containing 1.6 μg BSA plus the test sample. The mice were inoculated in the same manner every 2-3 days until about 19 days after the first inoculation. The diameter and width of each tumor was measured every 2-3 days using calipers.
Six nude mice were injected with A375 cells as described in Example 1D, above. After the tumors became palpable, the mice were injected, proximal to the tumor, with PBS (control) or PBS containing 400 ng Oncostatin M, three mice in each group.
The cumulative sizes (mm^2) of the tumors in each group of three mice were determined every 2-3 days.

WI26 fibroblasts = assay: Cell growth modulatory assay using 3H-thymidine incorporation into DNA (GIA); assay type: cell-based, human
Description: as §1
(§3) Human tumor cells (A375 melanoma cells, A549 lung cancer cells, HBT10 neuroblastoma cells, and SK-MEL28 melanoma cells) were seeded at 3×10^3 cells/well and normal fibroblasts (WI26 cells and WI38 cells) at 1.5×10^3 cells/well in 96-well plates. Various concentrations of purified Oncostatin M, obtained from the fraction from the C18^3 column with peak antiproliferative activity against A375 cells were used. The assay was performed as described in Example 1B above.

SK-MEL28 melanoma cells = assay: as above; assay type: cell-based, human
Description: as §1, §3

WI38 fibroblasts = assay: as above; assay type: cell-based, human
Description: as §1, §3

For “Oncostatin M: Human polypeptide growth regulator produced by activated leukocytes; apparent molecular weight approximately 28 kD by PAGE”, the “GIA Units to Cause 30% Inhibition 3H-TDR Incorporation” value (A375 melanoma cells; A375 (melanoma)) was 0.3 GIA Units, the “concentration to cause 30% inhibition 3H-TdR” value (A375 melanoma cells; A375, based upon the specific activity of purified Oncostatin M) was about 0.015 ng/mL and the “Observed % Inhibition of 3H-TdR Incorporation” value (A375 melanoma cells; A375 Cells) was 17%. The “% Inhibition of 3H-thymidine incorporated” value (A375 melanoma cells; Exp. 1, A375, 1 GIA units/well) was 46%, the “% Inhibition of 3H-thymidine incorporated” value (A375 melanoma cells; Exp. 1, A375, 4 GIA units/well) was 62% and the “% Inhibition of 3H-thymidine incorporated” value (A375 melanoma cells; Exp. 1, A375, 16 GIA units/well) was 83%. For the same substance, the “% Inhibition of 3H-thymidine incorporated” value (A375 melanoma cells; Exp. 2, A375, 3 GIA units/well) was 76%, the “% Inhibition of 3H-thymidine incorporated” value (A375 melanoma cells; Exp. 2, A375, 9 GIA units/well) was 87% and the “% Inhibition of 3H-thymidine incorporated” value (A375 melanoma cells; Exp. 3, A375, 8 GIA units/well) was 71%. The “% Inhibition of 3H-thymidine incorporated” value (A375 melanoma cells; Exp. 3, A375, 25 GIA units/well) was 85%, the “% Inhibition of 3H-thymidine incorporated” value (A375 melanoma cells; Exp. 3, A375, 75 GIA units/well) was 89% and the “% Inhibition of 3H-thymidine incorporated” value (A375 melanoma cells; Exp. 4, A375, 1 GIA units/well) was 59%. The “% Inhibition of 3H-thymidine incorporated” value (A375 melanoma cells; Exp. 4, A375, 5 GIA units/well) was 75%, the “% Inhibition of 3H-thymidine incorporated” value (A375 melanoma cells; Exp. 4, A375, 20 GIA units/well) was 87% and the “Growth inhibitory activity contained in the fraction” value (A375 melanoma cells; apparently homogeneous C18^3 fraction, approximately 300 ng protein) was “about 40,000 GIA units”. For the same substance, the “Proliferation of A375 cells” value (A375 melanoma cells; protein electroeluted from the 28 kD band, non-reducing PAGE) was “inhibit proliferation of A375 cells”, the “Proliferative or cytotoxic T cell responses in MLC” value [1] was “does not suppress” and the Cytotoxic activity [2] was “lacks cytotoxic activity”. The “Observed % Inhibition of 3H-TdR Incorporation” value (MCF-7 breast tumor cells) was 18%, the “GIA Units to Cause 30% Inhibition 3H-TDR Incorporation” value (A549 lung cancer cells; A549 (lung cancer)) was 21.0 GIA Units and the “concentration to cause 30% inhibition 3H-TdR” value (A549 lung cancer cells; A549, based upon the specific activity of purified Oncostatin M) was “approximately 1.4 ng/ml”. The “% Inhibition of 3H-thymidine incorporated” value (A549 lung cancer cells; Exp. 3, A549, 8 GIA units/well) was 16%, the “% Inhibition of 3H-thymidine incorporated” value (A549 lung cancer cells; Exp. 3, A549, 25 GIA units/well) was 22% and the “% Inhibition of 3H-thymidine incorporated” value (A549 lung cancer cells; Exp. 3, A549, 75 GIA units/well) was 30%. For the same substance, the “% Inhibition of 3H-thymidine incorporated” value ([3]; Exp. 2, HTB10, 3 GIA units/well) was 11%, the “% Inhibition of 3H-thymidine incorporated” value ([3]; Exp. 2, HTB10, 9 GIA units/well) was 22% and the “% Inhibition of 3H-thymidine incorporated” value ([3]; Exp. 2, HTB10, 27 GIA units/well) was 28%. For the same substance, the “GIA Units to Cause 30% Inhibition 3H-TDR Incorporation” value ([3]; HTB10 (neuroblastoma)) was 81.0 GIA Units, the “concentration to cause 30% inhibition 3H-TdR” value ([3]; HTB10, based upon the specific activity of purified Oncostatin M) was about 4.0 ng/mL and the Granulocytic/myelocytic colony formation (bone marrow cells) was “does not inhibit granulocytic/myelocytic colony formation”. For the same substance, the “Tumor size relative to control animals” value (A375 tumor cells; 400 ng Oncostatin M vs PBS) was “about half the size of those in control animals”, the “Tumor weight relative to control-treated mice” value (A375 tumor cells; 400 ng Oncostatin M vs PBS, after 21 days) was “approximately one-third the weight of the tumors from the control-treated mice” and the “Cumulative Tumor Size” value (A375 tumor cells; day 0 after treatment, 400 ng, PBS 70) was 50 mm^3. For the same substance, the “Cumulative Tumor Size” value (A375 tumor cells; day 3 after treatment, 400 ng, PBS 116) was 64 mm^3, the “Cumulative Tumor Size” value (A375 tumor cells; day 5 after treatment, 400 ng, PBS 130) was 66 mm^3 and the “Cumulative Tumor Size” value (A375 tumor cells; day 7 after treatment, 400 ng, PBS 160) was 90 mm^3. The “Cumulative Tumor Size” value (A375 tumor cells; day 10 after treatment, 400 ng, PBS 180) was 88 mm^3, the “Cumulative Tumor Size” value (A375 tumor cells; day 12 after treatment, 400 ng, PBS 210) was 100 mm^3 and the “Cumulative Tumor Size” value (A375 tumor cells; day 14 after treatment, 400 ng, PBS 268) was 116 mm^3. For the same substance, the “Cumulative Tumor Size” value (A375 tumor cells; day -1 after treatment, 400 ng s.c. proximal to tumor every 2-3 days, PBS 30) was 30 mm^3, the “Tumor Wt” value (A375 tumor cells; individual mice (No. 94, 97, 95) after 21 days, PBS mice 540, 440, 480) was 100 mg and 140 mg and 200 mg and the “% Stimulation of 3H-thymidine incorporated” value (shortened to “% Stimulation”) (WI26 fibroblasts; Exp. 2, WI26, 3 GIA units/well) was 52%. For the same substance, the “% Stimulation” value (WI26 fibroblasts; Exp. 2, WI26, 9 GIA units/well) was 36%, the “% Stimulation” value (WI26 fibroblasts; Exp. 2, WI26, 27 GIA units/well) was 46% and the Cytotoxic activity (WI26 fibroblasts; WI26 human fibroblasts) was “lacks cytotoxic activity”. For the same substance, the “% Inhibition of 3H-thymidine incorporated” value (SK-MEL28 melanoma cells; Exp. 4, SK-MEL28, 1 GIA units/well) was 11%, the “% Inhibition of 3H-thymidine incorporated” value (SK-MEL28 melanoma cells; Exp. 4, SK-MEL28, 5 GIA units/well) was 25% and the “% Inhibition of 3H-thymidine incorporated” value (SK-MEL28 melanoma cells; Exp. 4, SK-MEL28, 20 GIA units/well) was 44%. For the same substance, the “% Stimulation” value (WI38 fibroblasts; Exp. 1, WI38, 1 GIA units/well) was 46%, the “% Stimulation” value (WI38 fibroblasts; Exp. 1, WI38, 4 GIA units/well) was 30% and the “% Stimulation” value (WI38 fibroblasts; Exp. 1, WI38, 16 GIA units/well) was 25%. The Cytotoxic activity (WI38 fibroblasts; WI38 human fibroblasts) was “lacks cytotoxic activity”.
